The numbers were not newly measured in patent US20190274964A1, “NEW IMPROVED COMPOSITION OF RACECADOTRIL” (JOHNSON & JOHNSON CONSUMER INC., priority 2016, published 2019), which cites them from elsewhere.

This data set has as its system castor-oil induced diarrhea. As to conditions: rats.

On to `O=C(O)CNC(=O)C(CS)Cc1ccccc1` (centres unmarked) [thiorphan], for which the “Inhibition of castor-oil induced diarrhea” value is listed as “inhibit castor-oil induced diarrhea”. Further, under “intravenous administration, most prominent during first two hours following challenge”, the “Protection against diarrhea as measured by cumulative stool weight and time to onset” value is on record as “dose-dependent protection against diarrhea”.

Take `CC(=O)SCC(Cc1ccccc1)C(=O)NCC(=O)OCc1ccccc1` (centres unmarked) [Racecadotril, benzyl N-[3-(acetylthio)-2 benzylpropanoyl] glycinate]: the “Inhibition of castor-oil induced diarrhea” value is reported as “inhibit castor-oil induced diarrhea”. Under “pre-treatment p.o.”, the “Cumulative stool weight following challenge with castor oil” value is recorded as “reduction in cumulative stool weight”. In addition, the Time to onset entry (pre-treatment p.o., dose-response relationship could not be established) is given as “significantly delayed”.
